Source: patent US20240287627A1, “TEMPORALLY MULTIPLEXED IMAGING” (MASSACHUSETTS INSTITUTE OF TECHNOLOGY, priority 2023, published 2024)

Legend:
Type in all cases: cell-based
PKC = PKC imaging with BlueCKAR in NIH/3T3 cells (seven-signal imaging); conditions: 100 ng/ml PMA added at t=44 min (after forskolin)
From the text: (§1) Simultaneous imaging of seven cell activities within single cells: The genes of the single-color KTRs were cloned into the following plasmid: CAG-JNKKTRrsGreenF-E-P2A-ERK KTRrsFastLime-IRES-PKAKTRClover-P2A-P38KTRDropna (JNKKTR is SEQ ID NO: 5 and PKAKTR is SEQ ID NO: 7). The aforementioned plasmid was then used with plasmid CAG-NIR-GECO2G (Qian Y, et al., PLoS Biol., (2020); 18(11):e3000965), plasmid CMV-Pink Flamindo (Harada K, et al., Sci Rep., (2017); 7(1):7351), and plasmid CMV-BlueCKAR (Mehta S, et al., Nat Cell Biol, (2018); 20(10):1215-25) for imaging 7 signals within individual NIH/3T3 cells. Imaging conditions for blue channel, green channel, and red channel were the same as those used in the imaging of cell cycle phases and CDKs activities. An extra channel (excitation: 637/12 nm at 9 mW/mm^2; emission: 664LP, exposure time: 100 ms) was used for imaging NIR-GECO2G. Images and movies were acquired every 2 min. 50 μM forskolin (Millipore Sigma) and 100 ng/ml Phorbol 12-myristate 13-acetate (PMA) (Millipore Sigma) were used to stimulate cells.

PKA = experiment: Kinase translocation reporter imaging, PKA KTR-Clover, in NIH/3T3 cells
From the text: (§2) The constructs of JNKKTRrsGreenFast-E (JNKKTR is SEQ ID NO: 5), P38KTRDronpa, ERKKTRrsFastLime (ERKKTR is SEQ ID NO: 6) were built based on the original KTRs constructs JNKKTRClover (addgene plasmid 59151; JNKKTR is SEQ ID NO: 5), P38KTRmCerulean3 (addgene plasmid 59155), ERKKTRClover(addgene plasmid 59150; ERKKTR is SEQ ID NO: 6), all gift of Markus W. Covert (Regot S, et al., Cell, (2014); 157(7):1724-34). The newly developed three KTRs were then used along with PKAKTRClover (addgene plasmid […]; PKAKTR is SEQ ID NO: 7) and H2B-TagBFP to report the activities of all four kinases. H2B-TagBFP was used as a nucleus marker. NIH/3T3 cells were imaged on the same microscope and incubator system as the imaging of cell cycle phases. Cell culture media were changed to imaging media (MEM (Gibo) without phenol red with 1% FBS (Gibo)) prior to imaging. The imaging conditions (including exposure time, excitation, and emission) for KTRs were the same as those for imaging cell cycle phases as described previously. […]
(§3) Quantification of KTRs: Kinase activities reported by KTRs including CDK2 reporter and CDK4/6 reporter were quantified following the methods described previously (Regot S, et al., Cell, (2014); 157(7):1724-34). […]

Ca^2+ = experiment: Ca2+ imaging with NIR-GECO2G in NIH/3T3 cells (seven-signal imaging); conditions: 100 ng/ml PMA added at t=44 min (after forskolin)
From the text: as §1

P38 = experiment: Kinase translocation reporter imaging, Dronpa-based P38 sensor, in NIH/3T3 cells
From the text: as §2, §3

ERK = experiment: Kinase translocation reporter imaging, rsFastLime-based ERK sensor, in NIH/3T3 cells
From the text: as §2, §3

cAMP = cAMP imaging with Pink Flamindo in NIH/3T3 cells (seven-signal imaging); conditions: 100 ng/ml PMA added at t=44 min (after forskolin)
From the text: as §1

JNK = experiment: Kinase translocation reporter imaging, rsGreenF-E-based JNK sensor, in NIH/3T3 cells
From the text: as §2, §3

[1] = seven-signal imaging, 100 ng/ml PMA added at t=44 min (after forskolin)
[2] = four-KTR imaging, 20 ng/ml bFGF2 at t=0 min

Molecule	PKC response (PKC)	PKA response (PKA; [1])	Ca^2+ response (Ca^2+)	P38 response (P38; [1])	ERK response (ERK; [1])	cAMP response (cAMP)	JNK response (JNK; [1])	PKA KTR signal after stimulation (PKA; [2])	P38 KTR signal after stimulation (P38; [2])	ERK KTR signal after stimulation (ERK; [2])	JNK KTR signal after stimulation (JNK; [2])
CCCCCCCCCCCCCC(=O)O[C@@H]1[C@@H](C)[C@@]2(O)[C@@H](C=C(CO)C[C@]3(O)C(=O)C(C)=C[C@@H]23)[C@@H]2C(C)(C)[C@]12OC(C)=O [PMA, phorbol 12-myristate 13-acetate]	strong responses	strong responses	little to no changes	little to no changes	strong responses	strong responses	strong responses	–	–	–	–
bFGF2: mouse basic fibroblast growth factor 2 (protein, UniProt P15655 10-154, looked up) Fibroblast growth factor 2: PALPEDGGAAFPPGHFKDPKRLYCKNGGFFLRIHPDGRVDGVREKSDPHVKLQLQAEERGVVSIKGVCANRYLAMKEDGRLLASKCVTEECFFFERLESNNYNTYRSRKYSSWYVALKRTGQYKLGSKTGPGQKAILFLPMSAKS	–	–	–	–	–	–	–	Fast onset	steadily increased over time	steadily increased over time	Fast onset
